Experimental data: paper PMC11149885 (PLOS ONE, 2024)
“And” between values parts separate entries of the source, which are not always exact repeats. Identical values can stand only once.

Columns and labels:
[1] = synthetic melanin, 0.06 to 25.0μM, 37°C, 1 hour, ± SEM
[2] = target: T1, FGFR1 (Homo sapiens, UniProt P11362); test: HotSpot kinase screen; type: biochemical; details: 10μM ATP
T1 construct: purchased Reaction Biology Corporation (contract assay)

[3] = target: T2, FGFR3 (Homo sapiens, UniProt P22607); test: HotSpot kinase screen; type: biochemical; details: 1uM TKI, 10μM ATP
T2 construct: purchased Reaction Biology Corporation (contract assay)

[4] = target: T3, FGFR2 (Homo sapiens, UniProt P21802); test: HotSpot kinase screen; type: biochemical; details: 10μM ATP
T3 construct: purchased Reaction Biology Corporation (contract assay)
Description: (§1) Measurement of kinase activity was performed by Reaction Biology Corporation (Reaction Biology Corporation, Malvern, PA), using the HotSpot™ assay. The screen focused on RTKs reported in the literature to play a major role in the regulation of angiogenesis (VEGFR1, VEGFR2, and VEGFR3; fibroblast growth factor receptor [FGFR] 1, 2, and 3; and platelet-derived growth factor receptor beta [PDGFRβ]) as well as an RTK essential for maintaining blood vessel stability (TIE2). For the profiling, specific kinase/substrate pairs and required cofactors were prepared in a reaction buffer (20mM Hepes [pH 7.5], 10mM MgCl2, 1mM EGTA, 0.02% Brij35, 0.02 mg/mL BSA, 0.1mM Na3VO4, 2mM DTT, 1% dimethyl sulfoxide [DMSO]). TKI compounds were diluted to 10μM and 1μM concentrations for the screens and after addition to the reaction buffer incubated for 20 minutes, followed by the addition of a mixture of ATP (Sigma, St. Louis, MO) and ^33P-ATP (Perkin Elmer, Waltham, MA) to a final ATP concentration of 10μM. Reactions were carried out at room temperature for 2 hours, followed by spotting of the reactions onto P81 ion exchange filter paper (Whatman Inc., Piscataway, NJ). Unbound phosphate was removed by extensive washing of the filters. […] Kinome TREEspot images representing levels of inhibition were prepared using Kinome Mapper (https://www.reactionbiology.com/resources/tools/kinase-mapper).

[5] = target: T4, VEGFR3 (Homo sapiens, UniProt P35916); test: HotSpot kinase screen; type: biochemical; details: 10μM ATP
T4 construct: purchased Millipore Corporation (Dundee, Scotland) or Reaction Biology Corporation (contract assay)
Description: as §1

[6] = target: T5, PDGFRβ (Homo sapiens, UniProt P09619); test: HotSpot kinase screen; type: biochemical; details: 10μM ATP
T5 construct: purchased Reaction Biology Corporation (contract assay)

[7] = target: T4, VEGFR3; test: Ten-dose IC50 measurement; type: biochemical; details: 10μM ATP
[8] = system: VEGF-A–induced sprouting of HUVECs; test: HUVEC spheroid sprouting assay; type: cell-based, human; details: for cumulative sprout length per spheroid (CSL), mean: 25 ng/mL VEGF-165, 24 hours
Description: The three TKI compounds were tested by Reaction Biology Europe (Freiburg, Germany) in the spheroid-based cellular angiogenesis assay to determine their effect on VEGF-A–induced sprouting of HUVECs. Primary HUVECs from pooled donors at passage 3 to 4 (PromoCell, Heidelberg, Germany) were grown in endothelial cell growth and basal medium (ECGM/ECBM, PromoCell). Test compounds were prepared as 100-fold concentrated stock solutions in DMSO and pre-diluted in basal medium. HUVECs were stimulated using 25 ng/mL VEGF-165 (Reaction Biology Europe, Freiburg, Germany) pre-diluted in basal medium.
Spheroids were prepared as described by pipetting 400 HUVECs in a hanging drop on plastic dishes to allow overnight spheroid aggregation. Fifty HUVEC spheroids were seeded in 0.9 mL of a collagen gel and pipetted into individual wells of a 24-well plate to allow polymerization. Test compounds and VEGF-165 were added after 30 minutes by pipetting 100 μL of a ten-fold concentrated solution onto the polymerized gel. Plates were incubated at 37°C for 24 hours, and cells were fixed by adding 4% paraformaldehyde (Roth, Karlsruhe, Germany). Sprouting intensity of HUVEC spheroids treated with the test samples was quantitated using an image analysis system to determine the cumulative sprout length (CSL) per spheroid. Images of single spheroids were captured using an inverted microscope and the digital imaging software NIS-Elements BR 3.0 (Nikon). Spheroid pictures were uploaded to Wimasis (www.wimasis.com) for image analysis. The CSL of each spheroid was determined using the imaging analysis tool WimSprout. The mean CSL of ten randomly selected spheroids was analyzed as an individual data point.

[9] = target: T6, VEGFR1 (Homo sapiens, UniProt P17948); test: Ten-dose IC50 measurement; details: 10μM ATP
[10] = target: T7, TIE2 (Homo sapiens, UniProt Q02763); test: Ten-dose IC50 measurement; details: 10μM ATP
[11] = target: T7, TIE2; test: HotSpot kinase screen; type: biochemical; set-up: purchased Reaction Biology Corporation (contract assay); details: 1uM TKI, 10μM ATP
[12] = system: VEGF-induced angiogenesis on the CAM; test: Gelatin sponge chick chorioallantoic membrane (CAM) assay; details: for Angiogenesis - Vessel thickness score, Mean: score 0-3; for Angiogenesis - Vessel thickness score, individual egg: score 0-3, one value per egg
[13] = target: T6, VEGFR1; test: HotSpot kinase screen; type: biochemical; set-up: purchased Millipore Corporation (Dundee, Scotland) or Reaction Biology Corporation (contract assay); details: 10μM ATP
Description: as §1

[14] = 0.5 mg/kg bevacizumab (20.15μM)

T4 sequence (P35916 25-1363): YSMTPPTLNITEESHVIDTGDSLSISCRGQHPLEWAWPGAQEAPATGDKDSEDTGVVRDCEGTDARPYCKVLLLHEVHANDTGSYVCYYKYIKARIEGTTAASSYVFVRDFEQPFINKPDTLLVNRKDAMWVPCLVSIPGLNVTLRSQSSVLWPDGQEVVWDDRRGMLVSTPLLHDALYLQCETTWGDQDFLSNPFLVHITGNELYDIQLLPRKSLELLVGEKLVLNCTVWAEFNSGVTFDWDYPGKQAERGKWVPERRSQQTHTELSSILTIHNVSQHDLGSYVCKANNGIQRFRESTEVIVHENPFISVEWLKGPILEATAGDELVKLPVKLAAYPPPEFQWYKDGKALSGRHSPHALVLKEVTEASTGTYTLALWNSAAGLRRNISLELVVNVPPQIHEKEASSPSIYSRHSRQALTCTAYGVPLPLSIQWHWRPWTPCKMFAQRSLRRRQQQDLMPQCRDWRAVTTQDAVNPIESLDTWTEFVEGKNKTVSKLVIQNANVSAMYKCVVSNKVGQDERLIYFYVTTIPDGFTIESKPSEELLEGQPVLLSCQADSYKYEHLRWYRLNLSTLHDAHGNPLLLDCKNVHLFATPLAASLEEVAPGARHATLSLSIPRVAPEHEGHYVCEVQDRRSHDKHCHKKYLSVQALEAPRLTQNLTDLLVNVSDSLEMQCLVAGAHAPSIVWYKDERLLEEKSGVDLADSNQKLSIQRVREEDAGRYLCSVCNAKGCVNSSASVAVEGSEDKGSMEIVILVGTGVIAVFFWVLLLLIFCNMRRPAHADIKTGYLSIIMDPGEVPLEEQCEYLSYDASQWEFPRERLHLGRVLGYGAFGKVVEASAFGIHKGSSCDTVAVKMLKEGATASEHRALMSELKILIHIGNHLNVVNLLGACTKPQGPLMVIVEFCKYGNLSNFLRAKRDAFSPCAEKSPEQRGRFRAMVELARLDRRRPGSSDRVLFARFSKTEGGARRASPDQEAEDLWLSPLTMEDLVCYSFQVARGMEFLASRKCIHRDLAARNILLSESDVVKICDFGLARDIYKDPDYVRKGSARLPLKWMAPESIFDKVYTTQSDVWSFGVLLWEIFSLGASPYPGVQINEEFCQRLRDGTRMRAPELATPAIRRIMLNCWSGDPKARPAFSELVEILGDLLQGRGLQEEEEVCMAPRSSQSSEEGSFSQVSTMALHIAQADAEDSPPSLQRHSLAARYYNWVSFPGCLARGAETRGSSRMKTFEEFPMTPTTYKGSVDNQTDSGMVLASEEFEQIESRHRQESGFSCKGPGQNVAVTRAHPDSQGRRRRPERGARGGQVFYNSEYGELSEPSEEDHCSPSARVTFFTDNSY
T6 sequence (P17948 27-1338): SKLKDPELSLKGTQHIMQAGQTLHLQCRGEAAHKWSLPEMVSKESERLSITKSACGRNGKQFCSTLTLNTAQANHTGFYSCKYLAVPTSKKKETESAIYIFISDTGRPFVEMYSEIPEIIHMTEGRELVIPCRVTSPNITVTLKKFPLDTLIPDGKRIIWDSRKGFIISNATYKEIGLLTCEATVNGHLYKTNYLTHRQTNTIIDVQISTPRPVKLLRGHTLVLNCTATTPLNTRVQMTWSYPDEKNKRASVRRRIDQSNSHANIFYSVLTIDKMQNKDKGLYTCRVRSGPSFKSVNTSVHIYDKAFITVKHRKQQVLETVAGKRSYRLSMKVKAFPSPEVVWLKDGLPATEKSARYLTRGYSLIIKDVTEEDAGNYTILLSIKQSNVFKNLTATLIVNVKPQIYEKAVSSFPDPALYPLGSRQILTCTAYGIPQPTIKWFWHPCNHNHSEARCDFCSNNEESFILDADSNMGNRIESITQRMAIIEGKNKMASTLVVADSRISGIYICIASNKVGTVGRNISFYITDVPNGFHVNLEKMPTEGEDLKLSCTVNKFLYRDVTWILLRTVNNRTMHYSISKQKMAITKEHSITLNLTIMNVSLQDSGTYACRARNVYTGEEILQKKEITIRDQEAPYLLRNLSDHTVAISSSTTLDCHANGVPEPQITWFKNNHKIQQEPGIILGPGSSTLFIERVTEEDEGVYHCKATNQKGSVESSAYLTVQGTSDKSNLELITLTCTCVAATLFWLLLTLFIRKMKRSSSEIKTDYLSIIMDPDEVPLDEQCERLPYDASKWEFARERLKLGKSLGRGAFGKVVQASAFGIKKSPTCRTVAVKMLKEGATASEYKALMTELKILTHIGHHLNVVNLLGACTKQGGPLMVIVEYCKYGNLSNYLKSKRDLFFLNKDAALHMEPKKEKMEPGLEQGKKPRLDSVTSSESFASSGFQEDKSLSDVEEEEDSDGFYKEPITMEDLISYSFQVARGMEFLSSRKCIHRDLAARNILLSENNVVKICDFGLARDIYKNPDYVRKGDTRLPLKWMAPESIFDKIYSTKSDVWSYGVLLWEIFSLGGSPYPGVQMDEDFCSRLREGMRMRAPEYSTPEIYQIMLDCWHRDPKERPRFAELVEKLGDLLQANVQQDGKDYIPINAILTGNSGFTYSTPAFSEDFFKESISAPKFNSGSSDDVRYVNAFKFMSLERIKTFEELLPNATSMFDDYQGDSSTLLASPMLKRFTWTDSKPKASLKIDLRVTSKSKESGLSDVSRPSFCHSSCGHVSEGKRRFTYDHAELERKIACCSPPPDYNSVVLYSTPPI
T7 sequence (Q02763 23-1124): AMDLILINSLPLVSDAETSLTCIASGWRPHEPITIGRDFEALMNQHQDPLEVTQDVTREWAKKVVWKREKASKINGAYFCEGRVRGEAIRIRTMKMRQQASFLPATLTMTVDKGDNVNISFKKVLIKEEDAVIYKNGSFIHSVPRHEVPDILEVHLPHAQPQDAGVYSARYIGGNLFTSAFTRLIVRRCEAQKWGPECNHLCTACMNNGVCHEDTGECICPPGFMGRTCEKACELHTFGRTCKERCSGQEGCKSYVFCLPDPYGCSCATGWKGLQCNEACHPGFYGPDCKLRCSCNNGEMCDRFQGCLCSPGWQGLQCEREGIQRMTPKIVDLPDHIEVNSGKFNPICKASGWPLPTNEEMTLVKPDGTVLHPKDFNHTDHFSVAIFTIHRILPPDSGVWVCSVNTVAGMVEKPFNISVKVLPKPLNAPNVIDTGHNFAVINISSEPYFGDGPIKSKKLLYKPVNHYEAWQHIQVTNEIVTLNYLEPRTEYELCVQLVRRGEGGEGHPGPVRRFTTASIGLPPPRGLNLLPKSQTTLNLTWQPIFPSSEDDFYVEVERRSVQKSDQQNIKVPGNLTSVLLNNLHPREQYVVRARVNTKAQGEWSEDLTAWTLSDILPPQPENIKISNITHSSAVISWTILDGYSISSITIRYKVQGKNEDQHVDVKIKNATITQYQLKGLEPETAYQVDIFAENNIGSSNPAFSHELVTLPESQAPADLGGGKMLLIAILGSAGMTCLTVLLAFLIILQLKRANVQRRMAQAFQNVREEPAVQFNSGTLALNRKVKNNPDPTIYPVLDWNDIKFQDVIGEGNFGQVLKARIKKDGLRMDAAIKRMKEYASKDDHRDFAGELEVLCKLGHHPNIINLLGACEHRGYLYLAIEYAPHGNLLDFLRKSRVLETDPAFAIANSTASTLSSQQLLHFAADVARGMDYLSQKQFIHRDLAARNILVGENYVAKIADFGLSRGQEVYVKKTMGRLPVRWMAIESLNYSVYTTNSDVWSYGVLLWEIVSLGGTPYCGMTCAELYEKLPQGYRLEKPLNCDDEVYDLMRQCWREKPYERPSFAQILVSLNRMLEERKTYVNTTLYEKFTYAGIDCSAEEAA
T3 sequence (P21802 22-821): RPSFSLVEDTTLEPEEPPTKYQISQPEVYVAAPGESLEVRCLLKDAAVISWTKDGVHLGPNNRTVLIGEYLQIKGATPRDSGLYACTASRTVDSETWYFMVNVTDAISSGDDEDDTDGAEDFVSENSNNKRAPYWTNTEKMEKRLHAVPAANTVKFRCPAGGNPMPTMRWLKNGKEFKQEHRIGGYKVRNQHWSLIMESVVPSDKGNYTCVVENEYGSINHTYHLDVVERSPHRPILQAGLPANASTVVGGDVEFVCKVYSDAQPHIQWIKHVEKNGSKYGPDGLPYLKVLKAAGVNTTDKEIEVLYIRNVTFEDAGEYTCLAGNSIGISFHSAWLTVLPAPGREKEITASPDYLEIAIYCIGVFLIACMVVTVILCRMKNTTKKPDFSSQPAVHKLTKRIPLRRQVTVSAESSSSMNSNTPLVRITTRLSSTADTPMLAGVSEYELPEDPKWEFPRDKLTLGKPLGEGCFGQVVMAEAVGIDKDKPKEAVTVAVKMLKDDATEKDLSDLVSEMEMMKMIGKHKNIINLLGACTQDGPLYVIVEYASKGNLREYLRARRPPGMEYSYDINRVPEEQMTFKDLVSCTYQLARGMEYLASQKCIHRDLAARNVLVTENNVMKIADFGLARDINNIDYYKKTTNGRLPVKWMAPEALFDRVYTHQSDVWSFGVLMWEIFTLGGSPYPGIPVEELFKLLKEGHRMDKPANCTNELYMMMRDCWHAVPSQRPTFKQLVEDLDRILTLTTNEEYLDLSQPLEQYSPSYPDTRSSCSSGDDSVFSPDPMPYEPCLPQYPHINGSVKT

CCN(CC)CCCC(C)Nc1ccnc2cc(Cl)ccc12 (centres unmarked) [Chloroquine]
Kd [1]: 3.06 ± 0.6 µM

CCN(CC)CCNC(=O)c1c(C)[nH]c(/C=C2\C(=O)Nc3ccc(F)cc32)c1C [Sunitinib]
Avg % Inhibition FGFR1 ([2]; 1uM TKI): 61.61% | Avg % Inhibition FGFR1 ([2]; 10uM TKI): 93.09% | Avg % Inhibition FGFR3 [3]: 79.29% | Avg % Inhibition FGFR2 ([4]; 1uM TKI): 77.42% | Avg % Inhibition FGFR2 ([4]; 10uM TKI): 98.03% | Avg % Inhibition VEGFR3 ([5]; 1uM TKI): 86.7% | Avg % Inhibition VEGFR3 ([5]; 10uM TKI): 99.18% | Avg % Inhibition PDGFRb ([6]; 1uM TKI): 92.22% | Avg % Inhibition PDGFRb ([6]; 10uM TKI): 97.19% | %Activity VEGFR3 ([7]; 1.00E-05 M TKI): 1.67% | %Activity VEGFR3 ([7]; 1.11E-06 M TKI): 9.53% | %Activity VEGFR3 ([7]; 1.23E-07 M TKI): 31.11% | %Activity VEGFR3 ([7]; 1.37E-08 M TKI): 63.61% | %Activity VEGFR3 ([7]; 1.52E-09 M TKI): 80.77% | %Activity VEGFR3 ([7]; 3.33E-06 M TKI): 3.43% | %Activity VEGFR3 ([7]; 3.70E-07 M TKI): 18.20% | %Activity VEGFR3 ([7]; 4.12E-08 M TKI): 47.10% | %Activity VEGFR3 ([7]; 4.57E-09 M TKI): 73.23% | %Activity VEGFR3 ([7]; 5.08E-10 M TKI): 86.68% | cumulative sprout length per spheroid (CSL), mean ([8]; 1.00E-05 M TKI): 99 | cumulative sprout length per spheroid (CSL), mean ([8]; 1.00E-06 M TKI): 298 | cumulative sprout length per spheroid (CSL), mean ([8]; 1.00E-07 M TKI): 387 | cumulative sprout length per spheroid (CSL), mean ([8]; 3.00E-06 M TKI): 173 | cumulative sprout length per spheroid (CSL), mean ([8]; 3.00E-07 M TKI): 230 | cumulative sprout length per spheroid (CSL), mean ([8]; 3.00E-08 M TKI): 893 | vessel sprouting (representative spheroid images) ([8]; highest test concentration of 1×10^–5M): zero vessel sprouting | %Activity VEGFR1 ([9]; 1.00E-05 M TKI): 2.53% | %Activity VEGFR1 ([9]; 1.11E-06 M TKI): 20.58% | %Activity VEGFR1 ([9]; 1.37E-08 M TKI): 78.18% | %Activity VEGFR1 ([9]; 1.52E-09 M TKI): 84.25% | %Activity VEGFR1 ([9]; 3.33E-06 M TKI): 8.53% | %Activity VEGFR1 ([9]; 3.70E-07 M TKI): 35.25% | %Activity VEGFR1 ([9]; 4.12E-08 M TKI): 63.70% | %Activity VEGFR1 ([9]; 4.57E-09 M TKI): 84.35% | %Activity VEGFR1 ([9]; 5.08E-10 M TKI): 93.32% | %Activity TIE2 ([10]; 1.00E-05 M TKI): 44.88% | %Activity TIE2 ([10]; 1.11E-06 M TKI): 93.41% | %Activity TIE2 ([10]; 1.37E-08 M TKI): 98.62% | %Activity TIE2 ([10]; 1.52E-09 M TKI): 99.65% | %Activity TIE2 ([10]; 3.33E-06 M TKI): 74.48% | %Activity TIE2 ([10]; 3.70E-07 M TKI): 96.23% | %Activity TIE2 ([10]; 4.12E-08 M TKI): 95.60% | %Activity TIE2 ([10]; 4.57E-09 M TKI): 97.42% | %Activity TIE2 ([10]; 5.08E-10 M TKI): 95.09% | Avg % Inhibition TIE2 [11]: 5.03% | Avg % Inhibition TIE2 ([11]; listed as sunitinib): 5% | Angiogenesis - Vessel number, Mean ([12]; TKI at 200 x VEGFR2 IC50): 7 | Angiogenesis - Vessel number, individual egg ([12]; TKI at 200 x VEGFR2 IC50, one value per egg): 8.67 and 8.33 and 1.67 and 6.67 and 3.33 | reduction of the number of blood vessels perfusing the sponges vs negative control ([12]; TKI at 200× VEGFR2 IC50 dose): 49.3% | Angiogenesis - Vessel thickness score, Mean ([12]; TKI at VEGFR2 IC50 dose): 1.8 | Angiogenesis - Vessel thickness score, individual egg ([12]; TKI at VEGFR2 IC50 dose): 3 and 0.67 and 2 and 2.33 and 1.33 and 1 | Avg % Inhibition VEGFR1 ([13]; 1uM TKI): 77.03% | Avg % Inhibition VEGFR1 ([13]; 10uM TKI): 93.14%

Bevacizumab: known anti-VEGF antibody, reference compound (positive control) in the CAM assay
Angiogenesis - Vessel number, Mean [12, 14]: 11.4 | Angiogenesis - Vessel number, individual egg ([12]; 0.5 mg/kg bevacizumab (20.15μM), one value per egg): 9.33 and 9.67 | vessel reduction compared to the negative control ([12]; 0.5 mg/kg bevacizumab (20.15μM), p = 0.05): 18% | Angiogenesis - Vessel thickness score, Mean [12, 14]: 0.8 | Angiogenesis - Vessel thickness score, individual egg [12, 14]: 1.33 and 0.33 and 1.67 and 0 and 1
